Laboratory results taken from PubChem BioAssay AID1996.
≈ marks a conversion by molar mass, not a printed value.

Conditions: buffer; pH 7.4; 200.0 µM

SMILES	solubility kinetic [µg/mL]
O=C(c1ccc(C(=O)N2CCN(c3ccccc3F)CC2)nc1)N1CCN(c2ccccc2F)CC1	3.5 (≈ 7.12 µM)
COc1ccccc1NC(=O)COC(=O)C1CC(=O)N(c2ccc3c(c2)OCCO3)C1 (centres undefined)	37.8 (≈ 88.6 µM)
COc1cc(CCC(=O)Nc2nccs2)cc(OC)c1OC	> 48.4
Cl.c1cc(CNC23CC4CC(CC(C4)C2)C3)ccn1	> 47.3
CCOC(=O)c1ccc(-c2ccc3c(c2)CCC3)nc1C	< 0.6
CCOC(=O)Cc1c(C)nc(Cc2ccc(OC(C)C)cc2)[nH]c1=O	> 51.7
O=C(c1ccc2c(c1)OCO2)C1CCCN(C(=O)C2CCOCC2)C1 (centres undefined)	> 51.8
CCN1CCc2c(OCC(=O)N3CCC(C)CC3)cccc2C1=O	46.2 (≈ 140 µM)
O=C(NCCN1CCOCC1)C1CC(=O)N(c2ccc(Cl)cc2)C1 (centres undefined)	> 52.8
N/C(Cc1nc(-c2ccc(Cl)cc2)cs1)=N/O	32.3 (≈ 121 µM)
CC1CN(CC(=O)Nc2ccc(Br)cn2)CC(C)O1 (centres undefined)	> 49.2
COc1ccc(Nc2cc(Nc3cccc(OC)c3)ncn2)cc1	0.5 (≈ 1.55 µM)
Cc1ccnc(NS(=O)(=O)c2cc(C(F)(F)F)ccc2Cl)c1	1.7 (≈ 4.85 µM)
CC1CN(C(=O)Nc2ccc(Br)cc2Cl)CC(C)O1 (centres undefined)	30.3 (≈ 87.2 µM)
OC1NC(=S)N(c2ccccc2)C1O (centres undefined)	> 31.5
O=C(NCc1ccco1)C1CCCN1C(=O)Nc1ccccc1 (centres undefined)	43.5 (≈ 139 µM)
O=C(CSc1nccc(=O)[nH]1)NC1CCCCCC1	> 42.2
Cc1ccc(C#N)c(SCCN2CCCCC2)n1	32.4 (≈ 124 µM)
O=C(Nc1cc2c3c(c1)CC(=O)N3CCC2)c1ccc(F)cc1	> 46.5
CN1CCN(S(=O)(=O)c2ccccc2)C(c2ccccc2)C1 (centres undefined)	44.2 (≈ 140 µM)
CCOC(=O)c1cnc(-c2ccccc2)nc1N1CC(C)OC(C)C1 (centres undefined)	32.1 (≈ 94 µM)
Cc1onc(-c2ccccc2)c1C(=O)N1CCCCCC1	> 42.7
COc1ccc(OCC(O)CN(C)C(=O)C(C)Oc2ccccc2)cc1 (centres undefined)	> 53.9
CCOc1ccc(C(=O)O/N=C(\N)c2ccccn2)cc1	5.2 (≈ 18.2 µM)

SMILES	solubility kinetic [µg/mL]
O=C(Cc1ccc(Cl)cc1Cl)NCc1cccnc1	> 44.3
O=C(NNC(=S)NC1CC2C=CC1C2)c1cccnc1 (centres undefined)	> 43.3
O=C(NC(=S)NC1CCCc2ccccc21)c1ccc(F)cc1 (centres undefined)	< 0.4
COc1ccccc1CNC(=O)CCCNC(=O)c1ccc(Cl)cc1	20.6 (≈ 57.1 µM)
O=C(N/C(=C\c1ccco1)C(=O)N1CCOCC1)c1ccco1	> 47.4
CC1CC(CN)CC(CO)C1 (centres undefined)	> 23.6
CC(=O)Nc1ccc(C(=O)OCCc2ccccc2)cc1	38.8 (≈ 137 µM)
CCCCN1C(=O)NC(NC(=O)C2CC2)(C(F)(F)F)C1=O (centres undefined)	> 46.1
CCCN(CCC)C(=O)CC(c1ccccc1)C1CCOC(C)(C)C1 (centres undefined)	50.3 (≈ 146 µM)
O=C(c1ccccc1)N1C(=O)C(c2ccccc2)Oc2ccccc21 (centres undefined)	3.1 (≈ 9.41 µM)
COC(=O)c1cc(S(=O)(=O)NC2CCCCC2)cn1C	42 (≈ 140 µM)
CCC(=NCc1cccnc1)c1c(O)n(-c2ccccc2)c(=O)[nH]c1=O	43.5 (≈ 124 µM)
O=C(c1cccc(O)c1)N1CCN(C(=O)C2CC2)CC1	> 41.1
Cc1ccc(NC(=O)CC(C)CC(=O)NCc2ccccc2)cc1Cl (centres undefined)	< 0.4
CCc1ccc2oc(C(=O)N3CCN(C)CC3)cc(=O)c2c1	> 45.1
CN1C(=O)c2ccc(NC(=O)c3cccc4ccccc34)cc2C1=O	0.8 (≈ 2.42 µM)
CN(C)/C=C1/OC(=O)C(C#N)=C1c1ccc(Cl)cc1	2.4 (≈ 8.74 µM)
O=c1c2ccccc2nc(/C=C/c2ccc(F)cc2)n1-c1ccccc1O	5.2 (≈ 14.5 µM)
CC(=O)c1c(C)nc(Nc2nc3ccccc3s2)nc1C	0.2 (≈ 0.67 µM)
CC1(C)CC(NC(=S)NC2CC2)CC(C)(C)N1	> 38.3
CCCCOc1cc(C(=O)NCCN(CC)CC)c2ccccc2n1.Cl	> 57
Cc1ccc(-c2cc(C(=O)NC3CCCC3)no2)cc1	0.5 (≈ 1.85 µM)
COC(=O)/C(C#N)=C/c1c(Oc2cccc(C)c2C)nc2ccccn2c1=O	1 (≈ 2.66 µM)
COc1ccccc1C(=O)OCC(=O)NC(C)CCc1ccccc1 (centres undefined)	> 51.2

SMILES	solubility kinetic [µg/mL]
O=C(Nc1cc(S(=O)(=O)N2CCOCC2)ccc1N1CCOCC1)c1ccc([N+](=O)[O-])s1	6.1 (≈ 12.6 µM)
CN(C(=O)c1ccco1)c1nc(-c2ccc(Cl)cc2)cs1	0.9 (≈ 2.82 µM)
CCN(CC(=O)Nc1cccc(OC)c1)C(=O)c1ccco1	> 45.3
COc1ccc(C(C)=O)cc1CC(=O)NCCCn1ccnc1	> 47.3
Cc1ccc(S(=O)(=O)NCC(=O)Nc2ccc3c(c2)OCO3)cc1	49.4 (≈ 142 µM)
CSCC[C@H](NC(=O)c1ccc(OCC2CCCO2)cc1)c1nc2ccccc2[nH]1 (some centres undefined)	56.9 (≈ 134 µM)
O=C(Nc1cc(S(=O)(=O)N2CCOCC2)ccc1N1CCCCC1)c1ccccc1Br	6.1 (≈ 12 µM)
[NH-]S(=O)(=O)c1ccccc1.[Na+]	> 26.9
O=C(CCc1ccccc1)Nc1ccc2c(c1)C(=O)OC2	15.4 (≈ 54.7 µM)
CSCCC1COC(c2cccs2)=N1 (centres undefined)	29 (≈ 128 µM)
O=c1c([N+](=O)[O-])c(N2CCCC2)c2ccccc2n1-c1ccccc1	46.7 (≈ 139 µM)
CCNc1nc2c(c(=O)n(C)c(=O)n2C)n1CCCc1ccccc1	38.2 (≈ 112 µM)
COc1cc(-c2cc(C(=O)Nc3cc(S(=O)(=O)N4CCOCC4)ccc3O)c3ccccc3n2)cc(OC)c1OC	3.3 (≈ 5.69 µM)
Cc1ccccc1-c1noc(-c2ccccc2C(=O)O)n1	> 42
Cc1ccccc1CN1C(=O)c2ccccc2S1(=O)=O	2.5 (≈ 8.7 µM)
Cc1cc2cc(CNC(=O)Cc3ccc([N+](=O)[O-])cc3)ccc2n1C	0.3 (≈ 0.889 µM)
Cc1ccc(C(=O)Nc2ncccc2O)o1	> 32.7
CC(=O)N1CCN(C(=O)CNC(=O)c2cccs2)CC1	> 44.3
Cc1ccsc1C(=O)OCC(=O)NC1CCCC(C)C1C (centres undefined)	11.3 (≈ 36.5 µM)
O=C(CSc1nc2ncccc2[nH]1)Nc1ccc2c(c1)OCO2	> 49.3
CCCS(=O)(=O)C/C(N)=N/OC(=O)c1ccccc1Cl	38 (≈ 119 µM)
CC(=O)Nc1ccc(C(=S)NCC2(N(C)C)CCCCC2)cc1	21.1 (≈ 63.3 µM)
Cc1nc(NC(=O)CSc2nncs2)c(Cl)cc1Cl	> 50.3
Cc1ccc(NC(=S)N2CC(C)OC(C)C2)cc1C (centres undefined)	> 41.8

SMILES	solubility kinetic [µg/mL]
CCOC(=O)CNC(=O)c1ccc(Cl)s1	> 37.2
Cc1ccc(N2C(=O)CN=C2Nc2nc(C)cc(C)n2)cc1	> 44.3
O=C(Cc1c(F)cccc1Cl)Nc1nccs1	30 (≈ 111 µM)
Cc1nnc(SCC(=O)NC2CC2)n1-c1ccccc1	> 43.3
CC1CCCN(S(=O)(=O)c2cccc(C(=O)OCC(=O)N(C)Cc3c(F)cccc3Cl)c2)C1 (centres undefined)	8.8 (≈ 17.7 µM)
COCCNC(=O)c1ccc2c(c1)CCN2S(C)(=O)=O	44.7 (≈ 150 µM)
CCC1CCCCN1C(=S)NC(=O)c1cccc([N+](=O)[O-])c1 (centres undefined)	> 48.2
COc1ccc(OC)c(/C=C2\N=C(c3ccccc3)OC2=O)c1	0.8 (≈ 2.59 µM)
CCOc1ccc(OCC(=O)OC(C)C(=O)NC2CCCC2)cc1 (centres undefined)	> 50.3
CCOc1cnc(C(=O)NNC(=O)c2ccccc2Br)o1	> 53.1
CC1=C(C(=O)OCc2ccccc2)C(c2cccc(F)c2)NC(=O)N1 (centres undefined)	2.5 (≈ 7.35 µM)
O=C(NCC1CCCO1)c1cccnc1NCc1ccc(F)cc1 (centres undefined)	> 49.4
Cn1cc2cc(NC(N)=S)ccc2n1	> 30.9
O=C(O)CCSc1nc2ccccc2n1-c1ccccc1	> 44.8
Cn1c(N)c(C(=O)COC(=O)COc2cc(Cl)c(Cl)cc2Cl)c(=O)n(C)c1=O	4 (≈ 8.88 µM)
CC(=O)Nc1nonc1-c1nc2ccccc2n1C	3.1 (≈ 12.1 µM)
N#Cc1ccc(C(=O)OCC(=O)NC2CCCC2)cc1	39 (≈ 143 µM)
COc1ccc(C)cc1NC(=O)C1CC(=O)N(CCc2ccccc2)C1 (centres undefined)	> 52.9
COC(=O)c1ccc(S(=O)(=O)NCc2ccccc2)n1C	> 46.3
CSc1ncccc1C(=O)Nc1ccccc1N1CCOCC1	> 49.4
S=C(Nc1ccc2[nH]ccc2c1)NC1CCCCC1	37 (≈ 135 µM)
O=C(CN1C(=O)C(=O)c2ccccc21)NCCc1ccccc1	43.1 (≈ 140 µM)
CCCCN=C1CC(C)(C)CC(=O)/C1=C(/O)CCC	> 39.8
COC(=O)c1sccc1NC(=O)Nc1ccccc1C	23.6 (≈ 81.3 µM)

SMILES	solubility kinetic [µg/mL]
O=C(O)c1cc(-c2ccccc2)nc(-c2ccccc2)c1	> 41.3
O=C(N/N=C/c1ccc2nccnc2c1)c1ccncc1	> 41.6
O=C(O)C1CCCN1C(=O)NC1CCCCC1 (centres undefined)	30.4 (≈ 127 µM)
CN(C)c1cccc(C(=O)NCc2ccccc2)c1	> 38.1
O=C(O)/C=C/C(=O)Nc1ccc2c(c1)C(=O)c1ccccc1C2=O	> 48.2
COc1ccc(C)cc1-n1c(C)cc(C=O)c1C	36.4 (≈ 150 µM)
CCCNC(=O)c1csc(Nc2cccc3ccccc23)n1	17.8 (≈ 57.2 µM)
COc1ccccc1NC(=O)CCN1C(=O)C2CC=CCC2C1=O (centres undefined)	> 49.3
C#CCn1c2ccccc2c2nc3ccccc3nc21	< 0.2
Cc1onc(C(=O)Nc2cccc(C(F)(F)F)c2)c1[N+](=O)[O-]	32.4 (≈ 103 µM)
Cc1csc(=O)n1CCC(=O)OC(C)C(=O)NCc1ccccc1 (centres undefined)	> 52.3
O=C(NC(=O)N1CCC2(CC1)OCCO2)c1ccc(Cl)cc1	> 48.7
COC(=O)c1sc(SC)c(S(=O)(=O)C(C)C)c1N	3.8 (≈ 12.3 µM)
O=S(=O)(c1cc(F)ccc1F)N1CCN(c2ncccn2)CC1	46.9 (≈ 138 µM)
C/C(=N\NC(=O)c1cc(C)nc2ccccc12)c1ccccn1	> 45.7
COc1ccccc1C1C([N+](=O)[O-])=C(N)Oc2c1c(=O)oc1ccccc21 (centres undefined)	2.2 (≈ 6.01 µM)
O=[N+]([O-])c1ccc(-c2cn3c(n2)CCC3)cc1	25.5 (≈ 111 µM)
CCN(CC)S(=O)(=O)c1cc(NC(=S)NC(=O)C2CCCC2)ccc1C	6.1 (≈ 15.3 µM)
CC(C)(C)C(=O)N1CCn2c1nc1ccccc12	31.9 (≈ 131 µM)
CCC(C)c1ccc(NC(=O)Nc2cnccn2)cc1 (centres undefined)	1.3 (≈ 4.81 µM)
CSc1nc(-c2ccccc2)nc(NC(=O)C(C)C)c1C(C)=O	0.8 (≈ 2.43 µM)
CSCCn1c(C(C)(C)C)cc(C(=O)O)c1C	31.3 (≈ 123 µM)
COc1ccc(Cl)cc1NC(=O)COC(=O)c1ccc(Br)o1	2.6 (≈ 6.69 µM)
